Where two headings read alike, the source gives them in different places.
Tests used:
Type in all cases: in vivo
[1] = tested on: Abutilon theophrasti (ABUTH); test: Post-emergence herbicidal action against ABUTH; details: visual rating about 3 weeks after treatment vs untreated controls (100% = plants have died, 0% = like control plants)
Procedure, shortened: (§1)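 Doses of 320 g/ha or lower, suffixes a, b and c marking different dosages, were applied post-emergence at the one-leaf stage in 600 l/ha water with 0.5% additive. Damage was assessed visually after about 3 weeks in the greenhouse.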

[2] = tested on: Alopecurus myosuroides (ALOMY); test: Post-emergence herbicidal action against ALOMY; details: visual rating about 3 weeks after treatment vs untreated controls (100% = plants have died, 0% = like control plants)
Procedure, shortened: as §1

[3] = tested on: Amaranthus retroflexus (AMARE); test: Post-emergence herbicidal action against AMARE
Procedure, shortened: as §1

Avena fatua (AVEFA) = test: Post-emergence herbicidal action against AVEFA; details: visual rating about 3 weeks after treatment
Procedure, shortened: as §1

[4] = tested on: Digitaria sanguinalis (DIGSA); test: Post-emergence herbicidal action against DIGSA; details: visual rating about 3 weeks after treatment
Procedure, shortened: as §1

[5] = tested on: Echinochloa crus-galli (ECHCG); test: Post-emergence herbicidal action against ECHCG
Procedure, shortened: as §1

Lolium rigidum (LOLRI) = test: Post-emergence herbicidal action against LOLRI
Procedure, shortened: as §1

[6] = tested on: Matricaria inodora (MATIN); test: Post-emergence herbicidal action against MATIN
Procedure, shortened: as §1

[7] = tested on: Pharbitis purpurea (PHBPU); test: Post-emergence herbicidal action against PHBPU
Procedure, shortened: as §1

[8] = tested on: Polygonum convolvulus (POLCO); test: Post-emergence herbicidal action against POLCO
Procedure, shortened: as §1

Setaria viridis (SETVI) = test: Post-emergence herbicidal action against SETVI
Procedure, shortened: as §1

[9] = tested on: Verconica persica (VERPE); test: Post-emergence herbicidal action against VERPE
Procedure, shortened: as §1

Viola tricolor (VIOTR) = test: Post-emergence herbicidal action against VIOTR
Procedure, shortened: as §1

Oryza sativa (ORYSA) = details: crop plant compatibility
Procedure, shortened: (§2)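 Percent effect on the crop was judged by eye against untreated controls, where 0% means like control and 100% means dead plants. Plants had been sprayed post-emergence at the one-leaf stage and then kept under optimum greenhouse conditions for about 3 weeks.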

Zea mays (ZEAMX) = details: for Post-emergence action against ZEAMX in % (crop plant compatibility): 20 g/ha, effect in comparison to untreated controls; for Post-emergence action against ZEAMX in %: crop plant compatibility, 80 g/ha, effect vs untreated controls
Procedure, shortened: as §2

[10] = 320 g/ha, visual rating about 3 weeks after treatment
[11] = 20 g/ha, effect vs untreated controls
[12] = 80 g/ha, effect in comparison to untreated controls

Row | SMILES | Post-emergence action against ABUTH in % ([1]; 80 g/ha) [%] | Post-emergence action against ABUTH in % ([1]; 320 g/ha) [%] | Post-emergence action against ALOMY in % ([2]; 320 g/ha) [%] | Post-emergence action against AMARE in % [3, 10] [%] | Post-emergence action against AVEFA in % (Avena fatua (AVEFA); 80 g/ha) [%] | Post-emergence action against AVEFA in % (Avena fatua (AVEFA); 320 g/ha) [%] | Post-emergence action against DIGSA in % ([4]; 320 g/ha) [%] | Post-emergence action against ECHCG in % ([5]; dosage 320 g/ha) [%] | Post-emergence action against LOLRI in % (Lolium rigidum (LOLRI); dosage 80 g/ha) [%] | Post-emergence action against LOLRI in % (Lolium rigidum (LOLRI); dosage 320 g/ha) [%] | Post-emergence action against MATIN in % ([6]; dosage 320 g/ha) [%] | Post-emergence action against PHBPU in % ([7]; dosage 320 g/ha) [%] | Post-emergence action against POLCO in % ([8]; dosage 320 g/ha) [%] | Post-emergence action against SETVI in % (Setaria viridis (SETVI); dosage 80 g/ha) [%] | Post-emergence action against SETVI in % (Setaria viridis (SETVI); dosage 320 g/ha) [%] | Post-emergence action against VERPE in % ([9]; 320 g/ha, VERPE) [%] | Post-emergence action against VERPE in % ([9]; dosage 80 g/ha) [%] | Post-emergence action against VIOTR in % (Viola tricolor (VIOTR); 80 g/ha) [%] | Post-emergence action against VIOTR in % (Viola tricolor (VIOTR); 320 g/ha) [%] | Post-emergence action against ZEAMX in % (crop plant compatibility) (Zea mays (ZEAMX)) [%] | further results
1 | CC(C)=NOC(=O)COc1nn(-c2ncccc2F)c(-c2ccc(F)nc2)c1C1CC1 [Example I-366] | 80 | 90 | 90 | 80 | 90 | 90 | 90 | 90 | 90 | 90 | 80 | 80 | 80 | 90 | 90 | 90 | 80 | 80 | 90 | 10 | Post-emergence action against DIGSA in % ([4]; 80 g/ha): 80%; Post-emergence action against ECHCG in % ([5]; dosage 80 g/ha): 90%; Post-emergence action against PHBPU in % ([7]; dosage 80 g/ha): 80%; Post-emergence action against ORYSA in % (Oryza sativa (ORYSA); [11]): 0%; Post-emergence action against ORYSA in % (Oryza sativa (ORYSA); [12]): 20%
2 | CCCOC(=O)COc1nn(-c2ncccc2F)c(-c2ccc(F)nc2)c1C1CC1 [Example I-344] | 80 | 80 | 90 | 90 | 90 | 90 | 90 | 90 | 90 | 90 | 80 | 90 | 90 | 90 | 90 | 90 | 90 | 80 | 80 | 0 | Post-emergence action against ALOMY in % ([2]; 80 g/ha): 90%; Post-emergence action against AMARE in % ([3]; 80 g/ha, visual rating about 3 weeks after treatment vs untreated controls (100% = plants have died, 0% = like control plants)): 90%; Post-emergence action against DIGSA in % ([4]; 80 g/ha): 90%; Post-emergence action against ECHCG in % ([5]; dosage 80 g/ha): 90%; Post-emergence action against MATIN in % ([6]; dosage 80 g/ha): 80%; Post-emergence action against PHBPU in % ([7]; dosage 80 g/ha): 90%; Post-emergence action against POLCO in % ([8]; dosage 80 g/ha): 80%; Post-emergence action against ORYSA in % (Oryza sativa (ORYSA); [11]): 0%; Post-emergence action against ORYSA in % (Oryza sativa (ORYSA); [12]): 0%; Post-emergence action against ZEAMX in % (Zea mays (ZEAMX)): 0%
3 | O=C(COc1nn(-c2ncccc2F)c(-c2ccc(F)nc2)c1C1CC1)OCC1CCCO1 (centres unmarked) [Example I-274] |  | 80 | 90 | 90 |  | 90 | 90 | 90 | 80 | 90 | 90 | 80 | 80 | 90 | 90 | 90 | 90 | 80 | 90 | 10 | Post-emergence action against ECHCG in % ([5]; dosage 80 g/ha): 80%; Post-emergence action against ORYSA in % (Oryza sativa (ORYSA); [11]): 0%; Post-emergence action against ZEAMX in % (Zea mays (ZEAMX)): 20%
4 | COC(=O)[C@H](C)COC(=O)[C@@H](C)Oc1nn(-c2ccccn2)c(-c2ccc(F)nc2)c1Cl [Example I-275] | 80 | 80 | 100 | 80 | 90 | 90 | 90 | 90 | 90 | 90 | 90 | 100 | 80 | 90 | 90 | 90 | 90 | 90 | 90 | 0 | Post-emergence action against ALOMY in % ([2]; 80 g/ha): 80%; Post-emergence action against MATIN in % ([6]; dosage 80 g/ha): 80%; Post-emergence action against PHBPU in % ([7]; dosage 80 g/ha): 90%; Post-emergence action against POLCO in % ([8]; dosage 80 g/ha): 80%; Post-emergence action against ZEAMX in % (Zea mays (ZEAMX)): 20%

Source: US20240041042A1, “1-(PYRIDYL)-5-AZINYLPYRAZOLE DERIVATIVES, AND THEIR USE FOR CONTROL OF UNDESIRED PLANT GROWTH” (Bayer Aktiengesellschaft, priority 2020, published 2024)
